Laboratory results published in the supplement of paper PMC4932681.

Assays:
[1] = test system: T-47D Tam1; assay: drug sensitivity score (DSS) (DSS (dimensionless)); higher = more sensitive; extreme values may be limits of the assay; conditions: 4-OH-tamoxifen in medium 1 µM; 72 h
Procedure: (§1)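 FIMM FO2B library drugs were tested at 5 concentrations (10,000-fold range) for 72 h, with CellTiter-Glo viability normalised to DMSO and benzethonium chloride controls. The Drug Sensitivity Score (DSS) is computed from the fitted logistic dose-response curve (area-based; 0 = inactive). Resistant lines and the 'in 1µM tamoxifen' arms were tested in 1 µM 4-OH-tamoxifen.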

[2] = test system: BT-474 Tam1; assay: as above; conditions: 4-OH-tamoxifen in medium 1 µM; 72 h
Procedure: as §1

[3] = test system: MCF-7 Tam1; assay: as above; conditions: 4-OH-tamoxifen in medium 1 µM; 72 h
Procedure: as §1

[4] = test system: ZR-75-1 Tam1; assay: as above; conditions: 4-OH-tamoxifen in medium 1 µM; 72 h
Procedure: as §1

[5] = test system: BT-474 Tam2; assay: as above; conditions: 4-OH-tamoxifen in medium 1 µM; 72 h
Procedure: as §1

[6] = test system: BT-474; assay: as above; conditions: 72 h
Procedure: as §1

[7] = test system: T-47D; assay: as above; conditions: 72 h
Procedure: as §1

[8] = test system: T-47D Tam2; assay: as above; conditions: 4-OH-tamoxifen in medium 1 µM; 72 h
Procedure: as §1

[9] = test system: ZR-75-1; assay: as above; conditions: 72 h
Procedure: as §1

[10] = test system: MCF-7; assay: as above; conditions: 72 h
Procedure: as §1

[11] = test system: ZR-75-1 Tam2; assay: as above; conditions: 4-OH-tamoxifen in medium 1 µM; 72 h
Procedure: as §1

[12] = test system: BT-474 Tam1; assay: relative IC50 (midpoint of fitted logistic curve, plateau may be below 50% inhibition; CellTiter-Glo viability); higher = less potent; conditions: 4-OH-tamoxifen in medium 1 µM; 72 h
Procedure: (§2)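 FIMM FO2B library drugs were plated at 5 concentrations spanning a 10,000-fold range in 384-well plates. Cells were incubated for 72 h at 37 °C and viability was read by CellTiter-Glo, normalised to DMSO (0% inhibition) and 100 µM benzethonium chloride (100% inhibition). IC50 values come from logistic dose-response fits (Breeze pipeline). Tamoxifen-resistant lines and the 'in 1µM tamoxifen' parental arms were tested in medium with 1 µM 4-OH-tamoxifen.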

[13] = test system: BT-474 Tam2; assay: as above; conditions: 4-OH-tamoxifen in medium 1 µM; 72 h
Procedure: as §2

[14] = test system: BT-474; assay: as above; conditions: 72 h
Procedure: as §2

[15] = test system: T-47D; assay: as above; conditions: 72 h
Procedure: as §2

[16] = test system: ZR-75-1; assay: as above; conditions: 72 h
Procedure: as §2

[17] = test system: MCF-7; assay: as above; conditions: 72 h
Procedure: as §2

[18] = test system: ZR-75-1 Tam1; assay: as above; conditions: 4-OH-tamoxifen in medium 1 µM; 72 h
Procedure: as §2

[19] = test system: ZR-75-1 Tam2; assay: as above; conditions: 4-OH-tamoxifen in medium 1 µM; 72 h
Procedure: as §2

Row | SMILES | drug sensitivity score [1] | drug sensitivity score [2] | drug sensitivity score [3] | drug sensitivity score [4] | drug sensitivity score [5] | drug sensitivity score ([6]; 4-OH-tamoxifen in medium 0 µM) | drug sensitivity score ([6]; 4-OH-tamoxifen in medium 1 µM) | drug sensitivity score ([7]; 4-OH-tamoxifen in medium 0 µM) | drug sensitivity score ([7]; 4-OH-tamoxifen in medium 1 µM) | drug sensitivity score [8] | drug sensitivity score ([9]; 4-OH-tamoxifen in medium 0 µM) | drug sensitivity score ([9]; 4-OH-tamoxifen in medium 1 µM) | drug sensitivity score ([10]; 4-OH-tamoxifen in medium 0 µM) | drug sensitivity score ([10]; 4-OH-tamoxifen in medium 1 µM) | drug sensitivity score [11] | relative IC50 [12] [µM] | relative IC50 [13] [µM] | relative IC50 ([14]; 4-OH-tamoxifen in medium 0 µM) [µM] | relative IC50 ([14]; 4-OH-tamoxifen in medium 1 µM) [µM] | relative IC50 ([15]; 4-OH-tamoxifen in medium 0 µM) [µM] | relative IC50 ([15]; 4-OH-tamoxifen in medium 1 µM) [µM] | relative IC50 ([16]; 4-OH-tamoxifen in medium 0 µM) [µM] | relative IC50 ([17]; 4-OH-tamoxifen in medium 1 µM) [µM] | relative IC50 [18] [µM] | relative IC50 ([16]; 4-OH-tamoxifen in medium 1 µM) [µM] | relative IC50 [19] [µM] | relative IC50 ([17]; 4-OH-tamoxifen in medium 0 µM) [µM]
1 | C=CC[C@@H]1/C=C(\C)C[C@H](C)C[C@H](OC)[C@H]2O[C@@](O)(C(=O)C(=O)N3CCCC[C@H]3C(=O)O[C@H](/C(C)=C/[C@@H]3CC[C@@H](O)[C@H](OC)C3)[C@H](C)[C@@H](O)CC1=O)[C@H](C)C[C@@H]2OC [Tacrolimus (FK 506)] | 2.72 | 2.73 | 1.18 | 0.336 | 2.96 | 0 | 1.97 | 0 | 0 | 0.788 | 0 | 0.622 | 0.766 | 3.51 | 0.01 | 2.79 | 1.41 | > 10 | 3.13 | > 10 | > 10 | > 10 | 1.23 | – | – | – | –
2 | COc1cc2nccc(Oc3ccc(NC(=O)Nc4cc(C)on4)c(Cl)c3)c2cc1OC [Tivozanib  (AV-951)] | 0.968 | 4.02 | 0.0468 | 0 | 1.74 | 1.25 | 3.61 | 0.499 | 0.378 | 0.444 | 0.0461 | 0 | 0.0979 | 0.0672 | 0 | 3.12 | 3.91 | 3.57 | 3.67 | – | – | – | – | > 10 | > 10 | – | –
3 | CC[C@H](CO)Nc1nc(NCc2ccccc2)c2ncn(C(C)C)c2n1 [Seliciclib (Roscovitine)] | 4 | 0 | 0.0488 | 0 | 0 | 0 | 0 | 0 | 0 | 0.682 | 0 | 0 | 0.816 | 0.217 | 0 | > 10 | > 10 | > 10 | > 10 | > 10 | > 10 | > 10 | – | > 10 | > 10 | > 10 | –
4 | S=c1[nH]cnc2nc[nH]c12 [Mercaptopurine] | 0.0158 | 0 | 0.313 | 3.2 | 0 | 0 | 1.43 | 0 | 0 | 0 | 3.86 | 0 | 0.509 | 2.88 | 1.17 | > 10 | > 10 | > 10 | – | > 10 | > 10 | 1.17 | – | 1.27 | – | – | –
5 | COc1cc2c(Oc3ccc(NC(=O)C4(C(=O)Nc5ccc(F)cc5)CC4)cc3F)ccnc2cc1OCCCN1CCOCC1 [Foretinib (Foretinib)] | 0.595 | 1.42 | 1.72 | 0 | 0.0003 | 0 | 1.73 | 0.41 | 0.227 | 1.36 | 0 | 0 | 0.867 | 0.0297 | 0.585 | 0.314 | – | > 1 | 0.404 | – | – | > 1 | – | – | – | – | –
6 | CNC(=O)c1ccccc1Sc1ccc2c(/C=C/c3ccccn3)n[nH]c2c1 [Axitinib] | 1.41 | 2.01 | 1.84 | 0 | 1.5 | 0.518 | 3.56 | 2.18 | 0.979 | 0.968 | 0 | 0.656 | 1.43 | 2.88 | 1.49 | 3.25 | – | – | 1.65 | 2.77 | – | > 10 | 1.48 | > 10 | – | – | 3.32
7 | CC(C)c1c(C(=O)Nc2ccccc2)c(-c2ccccc2)c(-c2ccc(F)cc2)n1CC[C@@H](O)C[C@@H](O)CC(=O)O [Atorvastatin] | 3.38 | 0.517 | 0 | 3.76 | 2.17 | 0.471 | 0 | 2.75 | 1.73 | 0.823 | 4.64 | 2.87 | 0.619 | 1.69 | 3.56 | – | – | – | > 10 | 1.82 | 3.21 | 1.17 | – | 1.72 | 1.65 | 1.43 | –
